Assay results from patent US5041567A, “Antibacterial monic acid derivatives” (Beecham Group plc, priority 1982, dated 1991).
Values after ≈ are worked out from the molar mass of the structure shown. Where two headings read alike, the source gives them in different places.

Key:
[1] = tested on: M. suipneumoniae HK(2); test: MIC against mycoplasma in vitro; type: cell-based; settings: Mesomycoplasma hyopneumoniae, 144 h
[2] = tested on: S. typhimurium S18; test: MIC against veterinary bacteria in vitro; settings: Salmonella enterica, TYPHIMURIUM, 18 h
Procedure: (§1) The activity of the compounds of the Examples against various veterinarily important bacteria, was assayed in vitro using two-fold serial dilutions in Diagnostic Sensitivity Test Agar inoculated with 10^4 organisms.

[3] = tested on: Strep. suis (group D) SPS11; test: MIC against veterinary bacteria in vitro; settings: Streptococcus suis, 18 h
Procedure: as §1

[4] = tested on: M. suipneumoniae MS 16; test: MIC against mycoplasma in vitro; type: cell-based; settings: Mesomycoplasma hyopneumoniae, MS16, 144 h
[5] = tested on: K. aerogenes A; test: MIC against human bacteria in vitro; type: cell-based; settings: Klebsiella aerogenes; K. aerogenes A; 5% chocolated horse blood agar, 18 hours; read-out: MIC
[6] = tested on: Bord. bronchiseptica B08; test: MIC against veterinary bacteria in vitro; settings: Bordetella bronchiseptica, B08, 18 h
Procedure: as §1

[7] = tested on: Strep. pneumoniae CN33; test: MIC against human bacteria in vitro; type: cell-based; settings: Streptococcus pneumoniae; Strep. pneumoniae CN33; 5% chocolated horse blood agar, 18 hours; read-out: MIC
[8] = tested on: Staph. aureus W2827; test: MIC against human bacteria in vitro; type: cell-based; settings: Staphylococcus aureus; Staph. aureus W2827; 5% chocolated horse blood agar, 18 hours; read-out: MIC
[9] = tested on: M. suipneumoniae JF 435; test: MIC against mycoplasma in vitro; type: cell-based; settings: Mesomycoplasma hyopneumoniae, JF435, 144 h
[10] = tested on: Strep. dysgalactiae SPD1; test: MIC against veterinary bacteria in vitro; settings: Streptococcus dysgalactiae, SPD1, 18 h
Procedure: as §1

[11] = tested on: Staph. aureus B4 (pen. resistant); test: MIC against veterinary bacteria in vitro; settings: Staphylococcus aureus, 18 h
Procedure: as §1

[12] = tested on: M. suipneumoniae Str. 11; test: MIC against mycoplasma in vitro; type: cell-based; settings: Mesomycoplasma hyopneumoniae
[13] = tested on: Staph. aureus 152 (pen. sens); test: MIC against veterinary bacteria in vitro; settings: Staphylococcus aureus, 18 h
Procedure: as §1

[14] = tested on: Erysipelothrix rhusiopathiae NCTC 8163; test: MIC against veterinary bacteria in vitro; settings: Erysipelothrix rhusiopathiae, NCTC8163, 18 h
Procedure: as §1

[15] = tested on: M. suipneumoniae J2206/183^b; test: MIC against mycoplasma in vitro; type: cell-based; settings: Mesomycoplasma hyopneumoniae, 144 h
[16] = tested on: Strep. agalactiae 2788-B; test: MIC against human bacteria in vitro; type: cell-based; settings: Streptococcus agalactiae; Strep. agalactiae 2788-B; 5% chocolated horse blood agar, 18 hours; read-out: MIC
[17] = tested on: P. mirabilis 889; test: MIC against human bacteria in vitro; type: cell-based; settings: Proteus mirabilis; P. mirabilis 889; 5% chocolated horse blood agar, 18 hours; read-out: MIC
[18] = tested on: Past. multocida PA2; test: MIC against veterinary bacteria in vitro; settings: Pasteurella multocida, PA2, 18 h
Procedure: as §1

[19] = tested on: Strep. faecalis I; test: MIC against human bacteria in vitro; type: cell-based; settings: Enterococcus faecalis; Strep. faecalis I; 5% chocolated horse blood agar, 18 hours; read-out: MIC
[20] = tested on: M. hyorhinis ATCC 23234; test: MIC against mycoplasma in vitro; type: cell-based; settings: Mesomycoplasma hyorhinis, ATCC23234, 144 h
[21] = tested on: M. dispar NCTC 10125; test: MIC against mycoplasma in vitro; type: cell-based; settings: 144 h
[22] = tested on: Sarcina lutea 8340; test: MIC against human bacteria in vitro; type: cell-based; settings: Micrococcus luteus; Sarcina lutea 8340; 5% chocolated horse blood agar, 18 hours; read-out: MIC
[23] = tested on: M. suipneumoniae NB12; test: MIC against mycoplasma in vitro; type: cell-based; settings: Mesomycoplasma hyopneumoniae
[24] = tested on: M. suipneumoniae PW/C/210; test: MIC against mycoplasma in vitro; type: cell-based; settings: Mesomycoplasma hyopneumoniae, 144 h
[25] = tested on: M. hyorhinis ATCC 25021; test: MIC against mycoplasma in vitro; type: cell-based; settings: Mesomycoplasma hyorhinis, ATCC25021, 144 h
[26] = tested on: M. suipneumoniae NCTC 10110; test: MIC against mycoplasma in vitro; type: cell-based; settings: Mesomycoplasma hyopneumoniae, NCTC10110, 144 h
[27] = tested on: M. bovigenitalium ATCC 14173; test: MIC against mycoplasma in vitro; type: cell-based; settings: 144 h
[28] = tested on: Pasteurella multocida 1633; test: MIC against human bacteria in vitro; type: cell-based; settings: Pasteurella multocida 1633; 5% chocolated horse blood agar, 18 hours; read-out: MIC
[29] = tested on: M. suipneumoniae UCD 1; test: MIC against mycoplasma in vitro; type: cell-based; settings: Mesomycoplasma hyopneumoniae, UCD1, 144 h
[30] = tested on: Corynebacterium pyogenes CY1; test: MIC against veterinary bacteria in vitro; settings: CY1, 18 h
Procedure: as §1

[31] = tested on: M. gallisepticum S6; test: MIC against mycoplasma in vitro; type: cell-based; settings: Mycoplasmoides gallisepticum
[32] = tested on: Staph. aureus Oxford; test: MIC against human bacteria in vitro; type: cell-based; settings: Staphylococcus aureus; Staph. aureus Oxford; 5% chocolated horse blood agar, 18 hours; read-out: MIC
[33] = tested on: Staph. aureus Oxford; test: MIC against veterinary bacteria in vitro; settings: Staphylococcus aureus, 18 h
Procedure: as §1

[34] = tested on: M. suipneumoniae TAM 6N; test: MIC against mycoplasma in vitro; type: cell-based; settings: Mesomycoplasma hyopneumoniae, TAM6N, 144 h
[35] = tested on: M. bovis NCTC 10131; test: microbe, parasite or virus in culture; type: cell-based; settings: NCTC10131, 144 h

Row | SMILES | MIC [2] [µg/mL] | MIC [3] [µg/mL] | MIC [5] [µg/mL] | MIC [6] [µg/mL] | MIC [7] [µg/mL] | MIC [8] [µg/mL] | MIC [10] [µg/mL] | MIC [11] [µg/mL] | MIC [13] [µg/mL] | MIC [14] [µg/mL] | MIC [16] [µg/mL] | MIC [17] [µg/mL] | MIC [18] [µg/mL] | MIC [19] [µg/mL] | MIC [22] [µg/mL] | MIC [28] [µg/mL] | MIC [30] [µg/mL] | MIC [32] [µg/mL] | MIC [33] [µg/mL] | MIC [35] [µg/mL] | other results
1 | C/C(=C\c1ncc(-c2ccc(S(C)(=O)=O)cc2)o1)C[C@@H]1OC[C@H](C[C@@H]2O[C@H]2[C@@H](C)[C@H](C)O)[C@@H](O)[C@H]1O [Example 10] | > 80 | 10 (≈ 19.2 µM) | > 128 | > 80 | 8 (≈ 15.3 µM) | 8 (≈ 15.3 µM) | 2.5 (≈ 4.79 µM) | 5 (≈ 9.59 µM) | 2.5 (≈ 4.79 µM) | > 80 | 8 (≈ 15.3 µM) | > 128 | 1.25 (≈ 2.4 µM) | > 128 | > 128 | 8 (≈ 15.3 µM) | > 80 | 8 (≈ 15.3 µM) | 2.5 (≈ 4.79 µM) | 0.01 (≈ 0.0192 µM) | MIC [1]: 0.05 µg/mL (≈ 0.0959 µM); MIC [4]: 0.025 µg/mL (≈ 0.0479 µM); MIC [9]: 0.05 µg/mL (≈ 0.0959 µM); MIC ([12]; STR.11, 144 h): 0.025 µg/mL (≈ 0.0479 µM); MIC [15]: 0.05 µg/mL (≈ 0.0959 µM); MIC [20]: 0.025 µg/mL (≈ 0.0479 µM); MIC [21]: 0.025 µg/mL (≈ 0.0479 µM); MIC ([23]; NB12, 144 h): 0.05 µg/mL (≈ 0.0959 µM); MIC [24]: 0.025 µg/mL (≈ 0.0479 µM); MIC [25]: 0.025 µg/mL (≈ 0.0479 µM); MIC [26]: 0.05 µg/mL (≈ 0.0959 µM); MIC [27]: 0.025 µg/mL (≈ 0.0479 µM); MIC [29]: 0.05 µg/mL (≈ 0.0959 µM); MIC ([31]; S6, 144 h): 0.1 µg/mL (≈ 0.192 µM); MIC [34]: 0.05 µg/mL (≈ 0.0959 µM)
2 | C/C(=C\c1ncc(-c2ccc([S+](C)[O-])cc2)o1)C[C@@H]1OC[C@H](C[C@@H]2O[C@H]2[C@@H](C)[C@H](C)O)[C@@H](O)[C@H]1O (stereo partly shown) [Example 11, 5-p-Methylsulphinylphenyl-2-(1-normon-2-yl) oxazole A] | > 80 | 5 (≈ 9.89 µM) | > 128 | > 80 | 4 (≈ 7.91 µM) | 16 (≈ 31.6 µM) | 1.25 (≈ 2.47 µM) | 5 (≈ 9.89 µM) | 2.5 (≈ 4.94 µM) | > 80 | 4 (≈ 7.91 µM) | > 128 | 0.625 (≈ 1.24 µM) | > 128 | > 128 | 8 (≈ 15.8 µM) | > 80 | 16 (≈ 31.6 µM) | 2.5 (≈ 4.94 µM) | ≤ 0.01 | MIC ([1]; M. suipneumoniae HK(2), 6 days, 37° C., read-out: MIC): 0.25 µg/mL (≈ 0.494 µM); MIC ([4]; M. suipneumoniae MS 16, 6 days, 37° C., read-out: MIC): 0.1 µg/mL (≈ 0.198 µM); MIC ([9]; M. suipneumoniae JF 435, 6 days, 37° C., read-out: MIC): 0.25 µg/mL (≈ 0.494 µM); MIC ([12]; 144 h, M. suipneumoniae Str. 11, 6 days, 37° C., read-out: MIC): 0.1 µg/mL (≈ 0.198 µM); MIC ([15]; M. suipneumoniae J2206/183^b, 6 days, 37° C., read-out: MIC): 0.25 µg/mL (≈ 0.494 µM); MIC ([20]; M. hyorhinis ATCC 23234, 6 days, 37° C., read-out: MIC): 0.1 µg/mL (≈ 0.198 µM); MIC ([21]; M. dispar NCTC 10125, 6 days, 37° C., read-out: MIC): 0.1 µg/mL (≈ 0.198 µM); MIC ([23]; 144 h, M. suipneumoniae NB12, Friis broth, 0.9% agarose, 6 days, 37° C., read-out: MIC): 0.1 µg/mL (≈ 0.198 µM); MIC ([24]; M. suipneumoniae PW/C/210, 6 days, 37° C., read-out: MIC): 0.1 µg/mL (≈ 0.198 µM); MIC ([25]; M. hyorhinis ATCC 25021, 6 days, 37° C., read-out: MIC): 0.1 µg/mL (≈ 0.198 µM); MIC ([26]; M. suipneumoniae NCTC 10110, 6 days, 37° C., read-out: MIC): 0.25 µg/mL (≈ 0.494 µM); MIC ([27]; M. bovigenitalium ATCC 14173, 6 days, 37° C., read-out: MIC): 0.1 µg/mL (≈ 0.198 µM); MIC ([29]; M. suipneumoniae UCD 1, 6 days, 37° C., read-out: MIC): 0.25 µg/mL (≈ 0.494 µM); MIC ([31]; 144 h, M. gallisepticum S6, 6 days, 37° C., read-out: MIC): 0.5 µg/mL (≈ 0.989 µM); MIC ([34]; M. suipneumoniae TAM 6N, 6 days, 37° C., read-out: MIC): 0.5 µg/mL (≈ 0.989 µM)
